Experimental data: patent US10597388B2, “Pyridazinone herbicides” (FMC CORPORATION, priority 2014, dated 2020)

Columns and labels:
Format in all cases: in vivo
kochia (Kochia scoparia) = test: Test C greenhouse herbicide test, postemergence; settings: Postemergence
Outline: (§1)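 Test chemicals were applied postemergence to greenhouse plants at the 1- to 4-leaf stage (2–18 cm tall) growing in peat/vermiculite medium. After 13–15 d, injury was rated visually against untreated controls on a 0–100 scale (0 = no effect, 100 = complete control).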

[1] = test system: oat, wild (wild oat, Avena fatua); test: Test C greenhouse herbicide test, postemergence; settings: Postemergence
Outline: as §1

[2] = test system: morningglory (Ipomoea coccinea); test: Test C greenhouse herbicide test, pre- and postemergence
Outline: (§2)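 Seeds sown in loam–sand blend treated preemergence; plants in peat-based medium sprayed postemergence at 2–18 cm (1- to 4-leaf stage); chemicals in non-phytotoxic solvent with surfactant. Greenhouse 13–15 d, then visual rating versus controls on 0–100 scale (0 no effect, 100 complete control).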

[3] = test system: barnyardgrass (Echinochloa crus-galli); test: as above
Outline: as §2

corn (Zea mays) = test: as above
Outline: as §2

[4] = test system: oilseed rape (Brassica napus); test: as above
Outline: as §2

[5] = test system: wheat (winter wheat, Triticum aestivum); test: as above
Outline: as §2

[6] = test system: velvetleaf (Abutilon theophrasti); test: as above
Outline: as §2

[7] = test system: johnsongrass (Sorghum halepense); test: as above
Outline: as §2

[8] = test system: galium (catchweed bedstraw, Galium aparine); test: as above
Outline: as §2

[9] = test system: blackgrass (Alopecurus myosuroides); test: as above
Outline: as §2

[10] = test system: foxtail, giant (giant foxtail, Setaria faberii); test: as above; settings: Postemergence
Outline: as §2

[11] = test system: pigweed (Amaranthus retroflexus); test: as above
Outline: as §2

[12] = test system: crabgrass, large (large crabgrass, Digitaria sanguinalis); test: as above
Outline: as §2

[13] = test system: waterhemp (common waterhemp, Amaranthus rudis); test: as above
Outline: as §2

soybean (Glycine max) = test: as above
Outline: as §2

[14] = test system: ragweed (common ragweed, Ambrosia elatior); test: as above
Outline: as §2

[15] = 31 g ai/ha, scale 0 to 100 (0 no effect, 100 complete control)
[16] = 125 g ai/ha, scale 0 to 100, 0 is no effect, 100 is complete control
[17] = 250 g ai/ha, scale 0 to 100, 0 no effect, 100 complete control, 13 to 15 d
[18] = Postemergence, 31 g ai/ha, scale 0 to 100 (0 no effect, 100 complete control)
[19] = Postemergence, 125 g ai/ha, scale 0 to 100, 0 is no effect, 100 is complete control
[20] = Postemergence, 250 g ai/ha, scale 0 to 100, 0 no effect, 100 complete control, 13 to 15 d
[21] = Preemergence, 31 g ai/ha, scale 0 to 100, 0 is no effect, 100 is complete control
[22] = Preemergence, 62 g ai/ha, scale 0 to 100, 0 is no effect, 100 is complete control
[23] = Preemergence, 125 g ai/ha, scale 0 to 100, 0 is no effect, 100 is complete control
[24] = Preemergence, 250 g ai/ha, scale 0 to 100 (0 no effect, 100 complete control)
[25] = postemergence, 62 g ai/ha, scale 0 to 100, 0 no effect, 100 complete control

For `CCC(=O)Oc1c(Cl)nn(C)c(=O)c1-c1c(C)sc2ccc(Cl)cc12` [Compound 111], the “Plant response rating, Kochia” value (kochia (Kochia scoparia); [15]) was 80, the “Plant response rating, Kochia” value (kochia (Kochia scoparia); [16]) was 90 and the “Plant response rating, Kochia” value (kochia (Kochia scoparia); [17]) was 95. The “Plant response rating, Oat, Wild” value [1, 15] was 55, the “Plant response rating, Oat, Wild” value [1, 16] was 90 and the “Plant response rating, Oat, Wild” value [1, 17] was 98. For the same compound, the “Plant response rating, Morningglory” value [2, 18] was 100, the “Plant response rating, Morningglory” value [2, 19] was 100 and the “Plant response rating, Morningglory” value [2, 20] was 100. For the same compound, the “Plant response rating, Morningglory” value [2, 21] was 50, the “Plant response rating, Morningglory” value [2, 22] was 70 and the “Plant response rating, Morningglory” value [2, 23] was 95. For the same compound, the “Morningglory plant response rating” value [2, 24] was 98, the “Plant response rating, Barnyardgrass” value [3, 18] was 10 and the “Plant response rating, Barnyardgrass” value [3, 19] was 45. The “Plant response rating, Barnyardgrass” value [3, 20] was 40, the “Plant response rating, Barnyardgrass” value [3, 21] was 10 and the “Plant response rating, Barnyardgrass” value [3, 22] was 20. The “Plant response rating, Barnyardgrass” value [3, 23] was 55, the “Barnyardgrass plant response rating” value [3, 24] was 85 and the “Barnyardgrass plant response rating” value [3, 25] was 30. The “Plant response rating, Corn” value (corn (Zea mays); [18]) was 5, the “Plant response rating, Corn” value (corn (Zea mays); [19]) was 15 and the “Plant response rating, Corn” value (corn (Zea mays); [20]) was 10. The “Plant response rating, Corn” value (corn (Zea mays); [21]) was 0, the “Plant response rating, Corn” value (corn (Zea mays); [22]) was 0 and the “Plant response rating, Corn” value (corn (Zea mays); [23]) was 0. For the same compound, the “Corn plant response rating” value (corn (Zea mays); [24]) was 15, the “Corn plant response rating” value (corn (Zea mays); [25]) was 10 and the “Plant response rating, Oilseed Rape” value [4, 18] was 80. The “Plant response rating, Oilseed Rape” value [4, 19] was 95, the “Plant response rating, Oilseed Rape” value [4, 20] was 100 and the “Plant response rating, Oilseed Rape” value [4, 21] was 0. The “Plant response rating, Oilseed Rape” value [4, 22] was 98, the “Plant response rating, Oilseed Rape” value [4, 23] was 100 and the “Oilseed Rape plant response rating” value [4, 24] was 100. The “Plant response rating, Wheat” value [5, 18] was 10, the “Plant response rating, Wheat” value [5, 19] was 15 and the “Plant response rating, Wheat” value [5, 20] was 25. For the same compound, the “Plant response rating, Wheat” value [5, 21] was 0, the “Plant response rating, Wheat” value [5, 22] was 5 and the “Plant response rating, Wheat” value [5, 23] was 20. The “Wheat plant response rating” value [5, 24] was 40, the “Plant response rating, Velvetleaf” value [6, 18] was 40 and the “Plant response rating, Velvetleaf” value [6, 19] was 98. The “Plant response rating, Velvetleaf” value [6, 20] was 90, the “Plant response rating, Velvetleaf” value [6, 21] was 65 and the “Plant response rating, Velvetleaf” value [6, 22] was 70. For the same compound, the “Plant response rating, Velvetleaf” value [6, 23] was 95, the “Velvetleaf plant response rating” value [6, 24] was 100 and the “Plant response rating, Johnsongrass” value [7, 18] was 10. The “Plant response rating, Johnsongrass” value [7, 19] was 15, the “Plant response rating, Johnsongrass” value [7, 20] was 10 and the “Plant response rating, Johnsongrass” value [7, 21] was 0. The “Plant response rating, Johnsongrass” value [7, 22] was 0, the “Plant response rating, Johnsongrass” value [7, 23] was 0 and the “Johnsongrass plant response rating” value [7, 24] was 20. The “Plant response rating, Galium” value [8, 18] was 95, the “Plant response rating, Galium” value [8, 19] was 95 and the “Plant response rating, Galium” value [8, 20] was 95. For the same compound, the “Plant response rating, Galium” value [8, 21] was 80, the “Plant response rating, Galium” value [8, 22] was 80 and the “Plant response rating, Galium” value [8, 23] was 100. For the same compound, the “Galium plant response rating” value [8, 24] was 100, the “Plant response rating, Blackgrass” value [9, 18] was 0 and the “Plant response rating, Blackgrass” value [9, 19] was 20. The “Plant response rating, Blackgrass” value [9, 20] was 35, the “Plant response rating, Blackgrass” value [9, 21] was 0 and the “Plant response rating, Blackgrass” value [9, 22] was 5. The “Plant response rating, Blackgrass” value [9, 23] was 5, the “Blackgrass plant response rating” value [9, 24] was 20 and the “Blackgrass plant response rating” value [9, 25] was 5. The “Plant response rating, Foxtail, Giant” value [10, 15] was 15, the “Plant response rating, Foxtail, Giant” value [10, 16] was 70 and the “Plant response rating, Foxtail, Giant” value [10, 17] was 85. For the same compound, the “Plant response rating, Pigweed” value [11, 18] was 85, the “Plant response rating, Pigweed” value [11, 19] was 90 and the “Plant response rating, Pigweed” value [11, 20] was 98. For the same compound, the “Plant response rating, Pigweed” value [11, 21] was 98, the “Plant response rating, Pigweed” value [11, 22] was 90 and the “Plant response rating, Pigweed” value [11, 23] was 98. The “Pigweed plant response rating” value [11, 24] was 100, the “Plant response rating, Crabgrass, Large” value [12, 18] was 10 and the “Plant response rating, Crabgrass, Large” value [12, 19] was 25. For the same compound, the “Plant response rating, Crabgrass, Large” value [12, 20] was 25, the “Plant response rating, Crabgrass, Large” value [12, 21] was 5 and the “Plant response rating, Crabgrass, Large” value [12, 22] was 5. The “Plant response rating, Crabgrass, Large” value [12, 23] was 85, the “Crabgrass, Large plant response rating” value [12, 24] was 80 and the “Crabgrass, Large plant response rating” value [12, 25] was 20. The “Plant response rating, Waterhemp” value [13, 18] was 40, the “Plant response rating, Waterhemp” value [13, 19] was 55 and the “Plant response rating, Waterhemp” value [13, 20] was 70. The “Plant response rating, Waterhemp” value [13, 21] was 50, the “Plant response rating, Waterhemp” value [13, 22] was 65 and the “Plant response rating, Waterhemp” value [13, 23] was 75. For the same compound, the “Waterhemp plant response rating” value [13, 24] was 85, the “Plant response rating, Soybean” value (soybean (Glycine max); [18]) was 0 and the “Plant response rating, Soybean” value (soybean (Glycine max); [19]) was 5. The “Plant response rating, Soybean” value (soybean (Glycine max); [20]) was 10, the “Plant response rating, Soybean” value (soybean (Glycine max); [23]) was 0 and the “Soybean plant response rating” value (soybean (Glycine max); [24]) was 0. The “Plant response rating, Ragweed” value [14, 18] was 98, the “Plant response rating, Ragweed” value [14, 19] was 98 and the “Plant response rating, Ragweed” value [14, 20] was 100. For the same compound, the “Plant response rating, Ragweed” value [14, 21] was 60, the “Plant response rating, Ragweed” value [14, 22] was 75 and the “Plant response rating, Ragweed” value [14, 23] was 90. The “Ragweed plant response rating” value [14, 24] was 98.
